ChEMBL document CHEMBL1201862, “PubChem BioAssay data set” (2004)
Values joined by “and” are separate entries in the source; they are usually repeats but may differ in a detail not shown here. Equal entries are not always repeated.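 Interpolation was linear, between the two tested concentrations surrounding the appropriate level; five concentrations were tested over 48 hours in 96-well plates. GI50: concentration for 50% inhibition of growth.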 Active and inactive are the calls of the source. Cut-off read from the data, not from the text of the source: active = GI50 up to about 1.1 µM and inactive = higher.

Experiments:
Assay in all cases: NCI tumour cell line growth inhibition, 48 h
KM12 = test system: KM12
OVCAR-5 = test system: OVCAR-5
SF-539 = test system: SF-539
A549 = test system: A549
SN12C = test system: SN12C
EKVX = test system: EKVX
MDA-MB-435 = test system: MDA-MB-435
NCI/ADR-RES = test system: NCI/ADR-RES
OVCAR-3 = test system: OVCAR-3
CCRF-CEM = test system: CCRF-CEM
OVCAR-8 = test system: OVCAR-8
COLO 205 = test system: COLO 205
UO-31 = test system: UO-31
MDA-MB-231 = test system: MDA-MB-231
PC-3 = test system: PC-3
HOP-92 = test system: HOP-92
HCT-15 = test system: HCT-15
RXF 393 = test system: RXF 393
MOLT-4 = test system: MOLT-4
MDA-N = test system: MDA-N
ACHN = test system: ACHN
K562 = test system: K562
SW-620 = test system: SW-620
MCF7 = test system: MCF7
SK-MEL-5 = test system: SK-MEL-5
U-251 = test system: U-251
SNB-19 = test system: SNB-19
A498 = test system: A498
SF-268 = test system: SF-268
SK-MEL-2 = test system: SK-MEL-2
NCI-H226 = test system: NCI-H226
HCC 2998 = test system: HCC 2998
HT-29 = test system: HT-29
NCI-H522 = test system: NCI-H522
NCI-H460 = test system: NCI-H460
Hs-578T = test system: Hs-578T
LOX IMVI = test system: LOX IMVI
Malme-3M = test system: Malme-3M
RPMI-8226 = test system: RPMI-8226
DU-145 = test system: DU-145
NCI-H23 = test system: NCI-H23
HOP-62 = test system: HOP-62
HL-60 = test system: HL-60
SNB-75 = test system: SNB-75
M14 = test system: M14
T47D = test system: T47D
IGROV-1 = test system: IGROV-1
SK-MEL-28 = test system: SK-MEL-28
786-0 = test system: 786-0
SK-OV-3 = test system: SK-OV-3
TK-10 = test system: TK-10
HCT-116 = test system: HCT-116
UACC-62 = test system: UACC-62
CAKI-1 = test system: CAKI-1

For CC(=O)OC/C=C\Cn1ncc(=O)[nH]c1=O, the GI50 (KM12) was 17 µM (inactive), the GI50 (OVCAR-5) was 17.9 µM (inactive) and the GI50 (SF-539) was 18.2 µM (inactive). For the same compound, the GI50 (A549) was 22.9 µM (inactive), the GI50 (SN12C) was 22.9 µM (inactive) and the GI50 (EKVX) was 20.3 µM (inactive). For the same compound, the GI50 (MDA-MB-435) was 18.2 µM (inactive), the GI50 (NCI/ADR-RES) was 23.1 µM (inactive) and the GI50 (OVCAR-3) was 28.2 µM (inactive). The GI50 (CCRF-CEM) was 17.3 µM (inactive), the GI50 (OVCAR-8) was 23.7 µM (inactive) and the GI50 (COLO 205) was 16 µM (inactive). The GI50 (UO-31) was 16.1 µM (inactive), the GI50 (MDA-MB-231) was 34 µM (inactive) and the GI50 (PC-3) was 16 µM (inactive). The GI50 (HOP-92) was 15.8 µM (inactive), the GI50 (HCT-15) was 19.2 µM and the GI50 (RXF 393) was 17.8 µM (inactive). For the same compound, the GI50 (MOLT-4) was 19.2 µM (inactive), the GI50 (MDA-N) was 14.9 µM (inactive) and the GI50 (ACHN) was 21.6 µM (inactive). For the same compound, the GI50 (K562) was 23 µM (inactive), the GI50 (SW-620) was 17.1 µM (inactive) and the GI50 (MCF7) was 13 µM (inactive). The GI50 (SK-MEL-5) was 12.6 µM (inactive), the GI50 (U-251) was 15 µM (inactive) and the GI50 (SNB-19) was 33.4 µM (inactive). For the same compound, the GI50 (A498) was 16.4 µM (inactive), the GI50 (SF-268) was 18 µM (inactive) and the GI50 (SK-MEL-2) was 18.1 µM (inactive). For the same compound, the GI50 (NCI-H226) was 18 µM (inactive), the GI50 (HCC 2998) was 19 µM (inactive) and the GI50 (HT-29) was 14.2 µM (inactive). The GI50 (NCI-H522) was 16.1 µM (inactive), the GI50 (NCI-H460) was 23.3 µM (inactive) and the GI50 (Hs-578T) was 27.7 µM (inactive). For the same compound, the GI50 (LOX IMVI) was 3.32 µM (inactive), the GI50 (Malme-3M) was 16.5 µM (inactive) and the GI50 (RPMI-8226) was 7.71 µM (inactive). For the same compound, the GI50 (DU-145) was 24.2 µM (inactive), the GI50 (NCI-H23) was 13.6 µM (inactive) and the GI50 (HOP-62) was 20.8 µM (inactive). The GI50 (HL-60) was 11.3 µM (inactive), the GI50 (SNB-75) was 16.7 µM (inactive) and the GI50 (M14) was 19 µM (inactive). The GI50 (T47D) was 22.1 µM (inactive), the GI50 (IGROV-1) was 17.9 µM (inactive) and the GI50 (SK-MEL-28) was 21.4 µM (inactive).

With CN1C/C(=C\c2ccccc2[N+](=O)[O-])C(=O)/C(=C/c2ccccc2[N+](=O)[O-])C1 the GI50 (KM12) was 1.99 µM (inactive), the GI50 (786-0) was 0.277 µM (active) and the GI50 (A549) was 3.55 µM (inactive). The GI50 (NCI/ADR-RES) was 1.03 µM (active), the GI50 (COLO 205) was 0.25 µM (active) and the GI50 (UO-31) was 0.303 µM (active). The GI50 (PC-3) was 1.23 µM (inactive), the GI50 (HOP-92) was 0.836 µM (active) and the GI50 (HCT-15) was 0.262 µM. For the same compound, the GI50 (MOLT-4) was 0.238 µM (active), the GI50 (SW-620) was 0.201 µM (active) and the GI50 (SK-OV-3) was 3.02 µM (inactive). For the same compound, the GI50 (MCF7) was 0.348 µM (active), the GI50 (TK-10) was 1.17 µM (inactive) and the GI50 (HCT-116) was 0.195 µM (active). For the same compound, the GI50 (SK-MEL-5) was 0.902 µM (active), the GI50 (UACC-62) was 0.771 µM (active) and the GI50 (U-251) was 1.19 µM (inactive). The GI50 (SNB-19) was 4.26 µM (inactive), the GI50 (A498) was 2.17 µM (inactive) and the GI50 (SK-MEL-2) was 2.11 µM (inactive). For the same compound, the GI50 (NCI-H226) was 5.05 µM (inactive), the GI50 (HCC 2998) was 1.01 µM (active) and the GI50 (NCI-H460) was 1.79 µM (inactive). For the same compound, the GI50 (DU-145) was 2.2 µM (inactive), the GI50 (HOP-62) was 2.48 µM (inactive) and the GI50 (HL-60) was 0.112 µM (active). The GI50 (SNB-75) was 2.21 µM (inactive) and the GI50 (IGROV-1) was 0.782 µM (active).

With Nc1nc(Cl)c(/N=N/c2ccc(Cl)cc2)c(NCC2(CO)CC(OCc3ccccc3)C2)n1 (stereo not given) the GI50 (UO-31) was 2.92 µM (inactive) and 2.08 µM (inactive), the GI50 (CAKI-1) was 3.31 µM (inactive) and 1.82 µM (inactive) and the GI50 (ACHN) was 1.53 µM (inactive) and 1.73 µM (inactive). The GI50 (K562) was 4.98 µM (inactive) and 3.03 µM (inactive), the GI50 (Malme-3M) was 1.62 µM (inactive) and the GI50 (HL-60) was 3.63 µM (inactive) and 3.48 µM (inactive). For the same compound, the GI50 (SNB-75) was 6.71 µM (inactive) and the GI50 (T47D) was 3.67 µM (inactive) and 3.15 µM (inactive).
